Patent US20070078207A1, “Stabilizer cyanoacrylate formulations” (priority 2005, published 2007)

System: L5178Y TK^±
Assay: Mouse lymphoma screening study, mutation assay without activation (protocol 431ICH1 edition 3)
Type: cell-based
Method: In order to determine mutagenic activity for cyanoacrylate compositions containing hydroquinone, a mouse lymphoma screening study was conducted according to methods known in the art. The assay protocol used was 431ICH1 edition 3 (L5178Y TK^±) and was conducted by Covance, Inc. The amount of radical stabilizer in each of the cyanoacrylate compositions was varied. The selective agent was 3.0 μg/ml 5-trifluorothymidine (TFT).

Cumulative RSG (without activation, Relative to Vehicle Control (%)): 2.0%
Daily Cell Counts Day 2 (without activation, footnote g = not subcultured): 0.9^g Cell/ML, 10E5 units
Daily Cell Counts Day 1 (without activation, selective agent 3.0 μg/ml TFT): 0.5 Cell/ML, 10E5 units
SMILES: Oc1ccc(O)cc1 [HQ in saline, hydroquinone]
mutagenic activity (result in words, mutagenic activity defined as 124.1×10E-6 units): does not exhibit mutagenicity
